Results: the supplement of paper PMC10307832

Legend:
Test in all cases: relative viability (nuclei count vs DMSO), 5 days (fraction); higher = more cells survive
NCI-H520 = tested on: NCI-H520
Outline: (§1)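 For relative viability, nuclei counts in treated wells were divided by those in vehicle wells. Lung cancer cell lines had been pin-tool dosed in 1536-well plates the day after seeding and cultured for 5 days, then fixed and stained in one step (final 0.05% Triton X-100, 1% formaldehyde, 1 ug/ml Hoechst) and imaged at 4×. Doses were one drug alone or a fixed anchor-drug dose plus five library-drug doses (not always all listed) in √10 steps, and values are duplicate-plate medians.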

NCI-H661 = tested on: NCI-H661
Outline: as §1

NCI-H2342 = tested on: NCI-H2342
Outline: as §1

ChaGo-K-1 = tested on: ChaGo-K-1
Outline: as §1

NCI-H1666 = tested on: NCI-H1666
Outline: as §1

NCI-H2170 = tested on: NCI-H2170
Outline: as §1

HOP-62 = tested on: HOP-62
Outline: as §1

NCI-H838 = tested on: NCI-H838
Outline: as §1

NCI-H1993 = tested on: NCI-H1993
Outline: as §1

CAL-12T = tested on: CAL-12T
Outline: as §1

NCI-H2085 = tested on: NCI-H2085
Outline: as §1

NCI-H1355 = tested on: NCI-H1355
Outline: as §1

NCI-H1734 = tested on: NCI-H1734
Outline: as §1

COR-L23 = tested on: COR-L23
Outline: as §1

RERF-LC-KJ = tested on: RERF-LC-KJ
Outline: as §1

NCI-H1651 = tested on: NCI-H1651
Outline: as §1

NCI-H322M = tested on: NCI-H322M
Outline: as §1

201T = tested on: 201T
Outline: as §1

LC-2-ad = tested on: LC-2-ad
Outline: as §1

NCI-H1944 = tested on: NCI-H1944
Outline: as §1

NCI-H2228 = tested on: NCI-H2228
Outline: as §1

NCI-H1395 = tested on: NCI-H1395
Outline: as §1

COCC1(CO)C(=O)C2CCN1CC2 (stereo not drawn) [PRIMA-1MET] + CCNC(=O)c1noc(-c2cc(C(C)C)c(O)cc2O)c1-c1ccc(CN2CCOCC2)cc1 [Luminespib] (partner 0.01 µM)
relative viability (NCI-H520; first compound 0.2 µM): 0.214
relative viability (NCI-H520; first compound 0.6325 µM): 0.215
relative viability (NCI-H520; first compound 2 µM): 0.186
relative viability (NCI-H520; first compound 6.325 µM): 0.2
relative viability (NCI-H520; first compound 20 µM): 0.203
relative viability (NCI-H661; first compound 0.2 µM): 1.02
relative viability (NCI-H661; first compound 0.6325 µM): 0.886
relative viability (NCI-H661; first compound 2 µM): 0.965
relative viability (NCI-H661; first compound 6.325 µM): 0.929
relative viability (NCI-H661; first compound 20 µM): 0.886
relative viability (NCI-H2342; first compound 0.2 µM): 0.722
relative viability (NCI-H2342; first compound 0.6325 µM): 0.696
relative viability (NCI-H2342; first compound 2 µM): 0.57
relative viability (NCI-H2342; first compound 6.325 µM): 0.675
relative viability (NCI-H2342; first compound 20 µM): 0.602
relative viability (ChaGo-K-1; first compound 0.2 µM): 0.694
relative viability (ChaGo-K-1; first compound 0.6325 µM): 0.531
relative viability (ChaGo-K-1; first compound 2 µM): 0.57
relative viability (ChaGo-K-1; first compound 6.325 µM): 0.592
relative viability (ChaGo-K-1; first compound 20 µM): 0.346
relative viability (NCI-H1666; first compound 0.2 µM): 1.02
relative viability (NCI-H1666; first compound 0.6325 µM): 0.714
relative viability (NCI-H1666; first compound 2 µM): 0.906
relative viability (NCI-H1666; first compound 6.325 µM): 1.03
relative viability (NCI-H1666; first compound 20 µM): 0.85
relative viability (NCI-H2170; first compound 0.2 µM): 1.06
relative viability (NCI-H2170; first compound 0.6325 µM): 0.545
relative viability (NCI-H2170; first compound 2 µM): 0.557
relative viability (NCI-H2170; first compound 6.325 µM): 0.68
relative viability (NCI-H2170; first compound 20 µM): 0.667
relative viability (HOP-62; first compound 0.2 µM): 0.989
relative viability (HOP-62; first compound 0.6325 µM): 0.923
relative viability (HOP-62; first compound 2 µM): 0.923
relative viability (HOP-62; first compound 6.325 µM): 0.91
relative viability (HOP-62; first compound 20 µM): 0.786
relative viability (NCI-H838; first compound 0.2 µM): 0.315
relative viability (NCI-H838; first compound 0.6325 µM): 0.194
relative viability (NCI-H838; first compound 2 µM): 0.298
relative viability (NCI-H838; first compound 6.325 µM): 0.284
relative viability (NCI-H838; first compound 20 µM): 0.189
relative viability (NCI-H1993; first compound 0.2 µM): 1.04
relative viability (NCI-H1993; first compound 0.6325 µM): 0.829
relative viability (NCI-H1993; first compound 2 µM): 0.959
relative viability (NCI-H1993; first compound 6.325 µM): 0.996
relative viability (NCI-H1993; first compound 20 µM): 0.758
relative viability (CAL-12T; first compound 0.2 µM): 0.363
relative viability (CAL-12T; first compound 0.6325 µM): 0.383
relative viability (CAL-12T; first compound 2 µM): 0.547
relative viability (CAL-12T; first compound 6.325 µM): 0.918
relative viability (CAL-12T; first compound 20 µM): 0.166
relative viability (NCI-H2085; first compound 0.2 µM): 0.55
relative viability (NCI-H2085; first compound 0.6325 µM): 0.44
relative viability (NCI-H2085; first compound 2 µM): 0.3
relative viability (NCI-H2085; first compound 6.325 µM): 0.42
relative viability (NCI-H2085; first compound 20 µM): 0.267
relative viability (NCI-H1355; first compound 0.2 µM): 0.859
relative viability (NCI-H1355; first compound 0.6325 µM): 0.556
relative viability (NCI-H1355; first compound 2 µM): 0.695
relative viability (NCI-H1355; first compound 6.325 µM): 0.734
relative viability (NCI-H1355; first compound 20 µM): 0.673
relative viability (NCI-H1734; first compound 0.2 µM): 0.214
relative viability (NCI-H1734; first compound 0.6325 µM): 0.18
relative viability (NCI-H1734; first compound 2 µM): 0.192
relative viability (NCI-H1734; first compound 6.325 µM): 0.172
relative viability (NCI-H1734; first compound 20 µM): 0.0435
relative viability (COR-L23; first compound 0.2 µM): 0.691
relative viability (COR-L23; first compound 0.6325 µM): 0.528
relative viability (COR-L23; first compound 2 µM): 0.711
relative viability (COR-L23; first compound 6.325 µM): 0.578
relative viability (COR-L23; first compound 20 µM): 0.0159
relative viability (RERF-LC-KJ; first compound 0.2 µM): 1.42
relative viability (RERF-LC-KJ; first compound 0.6325 µM): 1.29
relative viability (RERF-LC-KJ; first compound 2 µM): 1.36
relative viability (RERF-LC-KJ; first compound 6.325 µM): 1.37
relative viability (RERF-LC-KJ; first compound 20 µM): 1.03
relative viability (NCI-H1651; first compound 0.2 µM): 0.99
relative viability (NCI-H1651; first compound 0.6325 µM): 0.704
relative viability (NCI-H1651; first compound 2 µM): 0.66
relative viability (NCI-H1651; first compound 6.325 µM): 1.06
relative viability (NCI-H1651; first compound 20 µM): 0.824
relative viability (NCI-H322M; first compound 0.2 µM): 0.974
relative viability (NCI-H322M; first compound 0.6325 µM): 0.809
relative viability (NCI-H322M; first compound 6.325 µM): 0.958
relative viability (NCI-H322M; first compound 20 µM): 0.556
relative viability (201T; first compound 0.2 µM): 1.17
relative viability (201T; first compound 0.6325 µM): 0.937
relative viability (201T; first compound 2 µM): 0.926
relative viability (201T; first compound 6.325 µM): 1.05
relative viability (201T; first compound 20 µM): 1.06
relative viability (LC-2-ad; first compound 0.2 µM): 1.26
relative viability (LC-2-ad; first compound 2 µM): 0.902
relative viability (LC-2-ad; first compound 6.325 µM): 1.16
relative viability (LC-2-ad; first compound 20 µM): 0.887
relative viability (NCI-H1944; first compound 0.2 µM): 0.671
relative viability (NCI-H1944; first compound 0.6325 µM): 0.612
relative viability (NCI-H1944; first compound 2 µM): 0.61
relative viability (NCI-H1944; first compound 6.325 µM): 0.685
relative viability (NCI-H1944; first compound 20 µM): 0.724
relative viability (NCI-H2228; first compound 0.2 µM): 0.212
relative viability (NCI-H2228; first compound 0.6325 µM): 0.139
relative viability (NCI-H2228; first compound 2 µM): 0.0997
relative viability (NCI-H2228; first compound 6.325 µM): 0.192
relative viability (NCI-H2228; first compound 20 µM): 0.056
relative viability (NCI-H1395; first compound 0.2 µM): 0.845
relative viability (NCI-H1395; first compound 0.6325 µM): 0.676
relative viability (NCI-H1395; first compound 2 µM): 0.677
relative viability (NCI-H1395; first compound 6.325 µM): 0.603
relative viability (NCI-H1395; first compound 20 µM): 0.406
